Legend:
STING Q = experiment: 293T STING digitonin reporter assay (Q haplotype); format: cell-based, human; settings: digitonin permeabilised 293T reporter cells
Protocol: Digitonin Assay with 293T Reporter Cells. The generation of 293T reporter cells stably expressing different STING protein haplotypes (WT, HAQ, REF, AQ, or Q) was described previously (Novotna et al, J. Med. Chem. 2019,62, 10676). The cells were seeded at a density of 250 000 cells per cm^2 into 96 well white poly(D-lysine) coated plates in 100 µL of DMEM with high glucose supplemented with 10% heat inactivated FBS. Next day, the medium was removed, and compounds were added in 3-fold serial dilutions in a digitonin buffer containing 50 mM HEPES (pH 7.0), 100 mM KCl, 3 mM MgClz, 0.1 mM DTT, 85 mM sucrose, 0.2% (w/w) BSA, 1 mM ATP, 0.1 mM GTP, and 10 µg/mL digitonin A. After 30 min incubation at 37 °C with 5% CO2, the digitonin buffer was removed, cells were washed once with 100 µL of the cultivation medium, and 100 µL of fresh medium was added to each well. The plates with cells were further incubated for 5 h at 37 °C with 5% CO2. Thereafter, 50 µL of the medium was removed, and 30 µL of Bright-Glo Luciferase Assay System reagent was added to each well. […] Nonlinear regression curve fit with standard slope was used for EC50 value calculations. The EC50 value represents CDN concentration that gives half-maximal response of firefly luciferase in the 293T reporter assay.

[1] = tested on: Her2 expressing HCC1954 breast tumor xenograft; experiment: Her2 expressing HCC1954 breast tumor xenograft model; format: in vivo, SCID-beige mice; settings: single i.v. dose 1.7 mg/kg (40x higher payload dose than in 2.5 mg/kg mAb3-3.3) (Fig. 8)
Protocol: For in vivo testing in the Her2 expressing HCC1954 breast cancer xenograft mouse model, female SCID-beige mice at 8 to 12 weeks of age (purchased from Charles River Lab) were used for implantation. HCC1954 cells (obtained from ATCC) were cultured in RPMI medium supplemented with 10% fetal bovine serum at 37°C in a humidified incubator with 5% CO2 On the day of implantation, 1 × 10^7 HCC1954 cells were re-suspended in 100µL RPMI1640 serum free media containing 50% Matrigel and implanted subcutaneously in the right flank. After implant, tumors were measured by caliper and mice were weighed two times per week once tumors were palpable. Tumor volumes were calculated from caliper measurements using formula (L × W^2)/2. Animals were pair matched when tumor reached volume 100 - 150 mm^3 (designated as day 1). Two i.v. injections were performed on day 1 and 8 (D1 and D8) of 5mg/kg of anti-Her2 mAbl-3.4 (DAR 3.9), 5mg/kg mAbl-3.11 (DAR 3.9), 5mg/kg isotype mAb-3.4 (DAR 3.9), 5mg/kg anti-Her2 mAb1 or PBS vehicle. […]
Compound 3.13 was conjugated to engineered light chain C110 and heavy chain C375 of anti-Her2 mAb (mAb3) as described above. […] After implant, tumors were measured by caliper and mice were weighed two times per week once tumors were palpable. Tumors were measured in two dimensions and tumor volumes were calculated from caliper measurements using formula (L × W^2)/2. […]

## Nc1ncnc2c1ncn2[C@@H]1O[C@@H]2OCP(=O)(S)O[C@@H]3[C@H](F)[C@@H](COP(=O)(S)OC[C@H]2[C@H]1F)O[C@H]3n1cnc2c(=O)[nH]cnc21 (single isomer, unassigned) [Compound 2.2]
STING Q
  EC50: 80 nM
[1]
  effect on HCC1954 tumors: only triggered tumor growth inhibition
